From US20170114025A1, “METHODS FOR INHIBITING NECROPTOSIS” (Catalyst Therapeutics Pty Ltd, priority 2014, published 2017)
Where two headings read alike, the source gives them in different places.

Assays:
wild type U937 cells = experiment: Cell death assay, TSQ-induced necroptosis in U937 cells (PI, flow cytometry); format: cell-based, human; conditions: for IC50: Homo sapiens
Text: (§1) Mouse dermal fibroblasts (MDFs) were isolated from three MlkI^−/− mice and three congenic wild type mice and then immortalized by SV40 large T antigen to generate three biologically independent cell lines, as described in Murphy J M, et al. (2013), Immunity 39(3):443-453. Immortalized MDFs were similarly prepared from three Ripk3^−/− mice and congenic wild type mice. MDFs and HEK293T were maintained in Dulbecco's modified Eagle's medium (DMEM) supplemented with 8-10% v/v fetal calf serum (FCS), and 5 μg/mL puromycin for lines stably transduced with inducible expression constructs for MLKL. U937 cells were cultured in RPMI1640 supplemented with 8% v/v FCS. Cell death assays were carried out in 24 well plates, seeding 1×10^5 cells per well. Cells attached over 4 h in the presence of 10 ng/mL doxycycline or 20 ng/mL were then treated with assorted combinations of Necrostatin (50 μM) and Q-VD-OPh (5 μM) 30 min prior to addition of TNF (100 ng/mL) and Smac mimetic (500 nM). After 24 h for MDF cells or 48 h for U937 cells, cells were harvested and PI positive cells (1 μg/mL) quantified using a BD FACSCalibur flow cytometer.

[1] = test system: U937 human histiocytic leukemia cell line; experiment: Screening for inhibition of TSQ induced necroptosis, 96 well plate format; format: cell-based
Procedure: Screening Compounds for Inhibition of TSQ Induced Necroptosis, 96 Well Plate Format.
U937 human histiocytic leukemia cell line.
35,000 per well in 120 μL of media, counted and plated immediately prior to addition of inhibitor and death stimuli. Final well volume of 150 μL after addition of compounds and death stimuli
HTRPMI (WEHI Media kitchen, contains L-Glutamine and penicillin, streptomycin)—supplemented with 7.4% v/v FCS (Gibco, Precision Plus. Lot #1221437)
48 hours following addition of compounds and death stimuli
DMSO Final Concentration (% v/v): 0.2%
Compounds that are in the Death Stimulation Cocktail and their Final Concentrations: • hTNF-Fc (100 ng/ml)—produced by Silke lab, WEHI • Compound A (500 nM)—Smac mimetic, Tetralogic • Q-VD-OPh (10 μM)—MP Biomedicals
Analysis: • Cells treated with PI staining (1 μg/ml) and analysed by flow cytometry
TNF; S: Smac mimetic; Q: Q-VD-OPh): TSQ treatment ensures that cells specifically undergo necroptotic cell death. TNF activates the TNF receptor, Smac mimetic direct the signal away from proinflammatory signaling and toward the RIP1/RIP3-mediated cell death pathways, and Q-VD-OPh ensures that the apoptotic response is blocked leaving only the programmed necrosis response. The compounds' activity (solution in DMSO) tested in this TSQ-induced assay is evaluated by measuring their ability to block cell death as measured by flow cytometry after PI staining.

[2] = target: T1, human MLKL(190-471) pseudokinase domain (Homo sapiens, UniProt Q8NB16); experiment: Surface Plasmon Resonance (SPR) binding, human MLKL; set-up: made in house; host or cells: Sf21 insect cells; conditions: read-out: Affinity (Kd) as determined by SPR
T1 sequence (Q8NB16 190-471): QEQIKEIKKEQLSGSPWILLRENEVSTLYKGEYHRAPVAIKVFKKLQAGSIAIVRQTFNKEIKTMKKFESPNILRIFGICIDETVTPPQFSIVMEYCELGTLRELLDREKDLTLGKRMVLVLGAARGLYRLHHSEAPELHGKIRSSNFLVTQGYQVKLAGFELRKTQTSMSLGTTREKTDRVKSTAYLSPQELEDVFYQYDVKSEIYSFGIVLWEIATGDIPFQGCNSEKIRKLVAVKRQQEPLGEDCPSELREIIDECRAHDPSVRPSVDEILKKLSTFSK
Text: Double His-tagged MLKL and an unrelated negative control reference protein were immobilized on an NTA Capture chip charged with Ni^2+ according to manufacturer's instructions. In some instances, double His-tagged proteins were captured via Ni^2+/NTA chelation on a series S sensor chip containing carboxymethylated dextran surface pre-immobilized with nitrilotriacetic acid (NTA). The surface was then activated and enhanced with NHS/EDC mixture and His captured proteins covalently coupled to the surface as succinamide esters. Ethanolamine was injected later to block any unreacted esters. Unbound Ni^2+ and non-covalently bound proteins were eluted by EDTA injections.
Typical immobilization levels were 2000-3000 Response Units (RU). Flow cell 1 was left blank as a reference surface. Immobilization experiments were carried out at 25° C. in a running buffer containing 20 mM HEPES (pH 8.0), 200 mM NaCl and 0.005% (v/v) surfactant P20.
Binding experiments were carried out in Running Buffer+2% v/v DMSO. […] Data were reduced, solvent corrected, and double referenced by Biacore T200 Evaluation Software. Data were fit globally to a two state kinetic interaction model and the Kd determined from the (kd/ka) ratio. A 1:1 binding stoichiometry was inferred from the steady state binding curves and the maximum observed Response Unit (RU) levels.

U937 cells = experiment: Counter screen: cell viability without TSQ cocktail (off target effect); format: cell-based; conditions: U937 without TSQ cocktail; for Off target effect (% cell death) at 500 nM: compound at 500 nM; for Off target effect (% cell death) at 1 uM: compound at 1 uM; for Off target effect (% cell death) at 5 uM: compound at 5 uM; for Off target effect (% cell death) at 10 uM: compound at 10 uM
Procedure: In parallel, all compounds are tested for their ability to affect cell viability. The same U937 cells are treated with compound in DMSO without the TSQ cocktail. This counter screen enables evaluation of off-target effects. In this case gain, cell viability is measured by flow cytometry after PI staining.

[3] = target: T2, human MLKL ATP-binding site (Homo sapiens, UniProt Q8NB16); experiment: Complex between compound and human MLKL (FIG. 5); conditions: FIG. 5 (A) and (B)
T2 sequence (Q8NB16 1-471): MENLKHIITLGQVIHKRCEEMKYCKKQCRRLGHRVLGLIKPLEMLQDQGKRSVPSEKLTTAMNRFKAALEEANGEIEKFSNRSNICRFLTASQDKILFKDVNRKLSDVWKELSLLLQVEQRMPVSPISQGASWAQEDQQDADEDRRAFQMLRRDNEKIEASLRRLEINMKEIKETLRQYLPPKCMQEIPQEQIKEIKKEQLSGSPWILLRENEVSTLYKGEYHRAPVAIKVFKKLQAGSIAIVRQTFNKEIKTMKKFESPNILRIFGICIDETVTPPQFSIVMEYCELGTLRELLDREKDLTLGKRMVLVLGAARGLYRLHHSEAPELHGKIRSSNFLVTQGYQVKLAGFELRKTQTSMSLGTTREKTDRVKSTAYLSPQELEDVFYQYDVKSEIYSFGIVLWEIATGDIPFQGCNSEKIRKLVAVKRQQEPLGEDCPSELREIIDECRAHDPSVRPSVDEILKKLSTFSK

[4] = test system: wild type MDFs (mouse dermal fibroblasts); experiment: Cell death assay, TSQ-induced necroptosis in MDFs (PI, flow cytometry); format: cell-based; conditions: wild type MDFs; at same or less than 1 μM
Text: as §1

[5] = U-937, 48 h, read-out: Cell based assay Average
[6] = U-937, 48 h, read-out: Cell based assay IC50
[7] = U-937, Table 1, U937 cells, TSQ-induced necroptosis, read-out: Inhibition of necroptosis (IC50)
[8] = U-937, U937, TSQ, 48 hours, average IC50, unit not given in Table 2 (titrations in nM), read-out: Cell based assay Average
[9] = U-937, U937, TSQ, 48 hours, unit not given in Table 2 (titrations given in nM), read-out: Cell based assay IC50

Structure (SMILES)	IC50 (wild type U937 cells; U-937, read-out: Inhibition of necroptosis (IC50))	IC50 [1, 5]	IC50 [1, 6]	Kd [2]	IC50 (wild type U937 cells; [7])	IC50 [1, 8]	IC50 [1, 9]	Off target effect (% cell death) at 500 nM (U937 cells)	Off target effect (% cell death) at 1 uM (U937 cells)	Off target effect (% cell death) at 5 uM (U937 cells)	Off target effect (% cell death) at 10 uM (U937 cells)	binding site in complex with human MLKL [3]	inhibition of TSQ-induced necroptosis [4]	inhibition of TSQ-induced necroptosis (wild type U937 cells; wild type U937 cells)
CN(c1ccc(NC(=O)Nc2ccc(OC(F)(F)F)cc2)cc1)c1ccnc(Nc2ccc(S(N)(=O)=O)cc2)n1 [Compound 4, 4-(4-(Methyl(4-(3-(4-(trifluoromethoxy)phenyl)ureido)phenyl)amino)pyrimidin-2-ylamino)benzenesulfonamide]	> 1000 nM	> 5000 nM	1460 nM	4700 nM										
CN(c1ccc(NC(=O)Nc2cc(C(F)(F)F)ccc2F)cc1)c1ccnc(Nc2cccc(S(N)(=O)=O)c2)n1 [Compound 3]					1 to 5 nM	15.3 nM	3.31 nM	40%	72%	86%	84%	binds within the ATP-binding site of human MLKL		
CN(c1ccc(NC(=O)Nc2ccccc2)cc1)c1ccnc(Nc2cccc(S(N)(=O)=O)c2)n1 [Compound 2]				1300 nM	400 to 800 nM		123 nM	24%	23%	32%	87%			
CNC(=O)c1cc(Oc2ccc(NC(=O)Nc3ccc(Cl)c(C(F)(F)F)c3)cc2)ccn1 [Sorafenib, reference compound]													did not inhibit	did not inhibit
Cc1ccc(Nc2nccc(N(C)c3ccc(NC(=O)Nc4ccc(OC(F)(F)F)cc4)cc3)n2)cc1S(N)(=O)=O [Compound 21, 2-Methyl-5-((4-(methyl(4-(3-(4-(trifluoromethoxy)phenyl)ureido)phenyl)amino)pyrimidin-2-yl)amino) benzenesulfonamide]						58.4 nM	72.7 nM	<20%	<20%	51%	79%			
NS(=O)(=O)c1cccc(Nc2nccc(N(c3ccc(NC(=O)Nc4ccc(OC(F)(F)F)cc4)cc3)C3CC3)n2)c1 [Compound 24, 3-((4-(Cyclopropyl(4-(3-(4-(trifluoromethoxy)phenyl)ureido)-phenyl)amino)-pyrimidin-2-yl)amino)benzenesulfonamide]		176 nM	144 nM					20%	21%	66%	80%			
CN(c1ccc(NC(=O)Nc2ccc(OC(F)(F)F)cc2)cc1)c1ccnc(Nc2cccc(CS(C)(=O)=O)c2)n1 [Compound 27, 1-(4-(Methyl(2-((3-((methylsulfonyl)methyl)phenyl)amino)pyrimidin-4-yl)amino)phenyl)-3-(4-(trifluoromethoxy)phenyl)urea]						114 nM	191 nM	24%	20%	33%	84%			
Cc1ccc(F)c(NC(=O)Nc2ccc(N(C)c3ccnc(Nc4cccc(S(N)(=O)=O)c4)n3)cc2)c1 [Compound 6]						19.9 nM	19 nM	<20%	40%	86%	89%			
CN(c1ccc(NC(=O)C(C)(C)c2ccc(OC(F)(F)F)cc2)cc1)c1ccnc(Nc2cccc(S(N)(=O)=O)c2)n1 [Compound 22, 2-methyl-N-(4-(methyl(2-((3-sulfamoylphenyl)amino)pyrimidin-4-yl)amino)phenyl)-2-(4-(trifluoromethoxy)phenyl)propanamide]						204 nM		<20%	<20%	35%	80%			
